In patent publication US5603963A, “Method for the treatment of retroviral diseases such as acquired immune deficiency syndrome utilizing (pseudo)halogen complexes of gold(1)” (priority 1994, dated 1997):
Read-outs that look alike come from different tables or passages of the source.

Tests used:
[1] = design: species or system patients; conditions: human, in vivo
Source text: A powerful means to attack the AIDS virus (HIV) would be to find a specific inhibitor of the viral reverse transcriptase. If this enzyme cannot function, viral replication cannot take place. The significant aspect of the viral life cycle which must be considered is that the viral replication takes place intracellularly. Thus, agents which may work in a test tube to inhibit the enzyme activity will have no effect on the virus itself unless the agent is capable of entering cells and developing an effective intracellular concentration.

[2] = tested on: HIV reverse transcriptase; conditions: in vitro; cited from earlier work
cells = conditions: cited from earlier work
AIDS = conditions: cited from earlier work
HIV = conditions: CEM cells; concentrations in the 6ppm range; cited from earlier work

Protocol for red blood cells: (§1) Experiments were done in which whole blood or red blood cells were washed and resuspended in a balanced salt solution, and then incubated at 37° with 200 ppb [Au(CN)2 ]^-. After 1 hour of incubation, cells were washed with balanced salt, centrifuged, then resuspended in water to lyse the cells. The resulting suspension was centrifuged at 20,000 rpm to separate the membrane and lysate (soluble protein) fractions. Both membrane and lysate fractions were analyzed for total gold by flow injection analysis using an inductively coupled plasma-mass spectrometer (ICP-MS).
Protocol for whole blood: as §1

sodium gold(I) thiomalate [Myochrysine]
total gold in Cell lysate (red blood cells): 6% | total gold in Membranes (red blood cells): 10% | total gold in Supernatant (red blood cells): 84% | gold remaining in the incubation medium (whole blood): ~90% | total gold found in the cell lysate (whole blood): about 5% | total gold in Cell lysate (whole blood): 4% | total gold in Membranes (whole blood): 6% | total gold in Supernatant (whole blood): 90%

gold(I) thioglucose [Solganol]
levels of gold inside cells (in words) [1]: well below the levels required to inhibit the enzyme in vitro | levels of gold inside cells relative to amount found in blood [1]: less than 5% | inhibition of HIV reverse transcriptase [2]: inhibit HIV reverse transcriptase | ability to enter cells (cells): inherently unable to enter cells

O=c1[nH]cnc2c1ncn2[C@H]1CC[C@@H](CO)O1 [DDI, dideoxyinosine]
side effects (AIDS; in vivo): significant side effects

bis(thioglucose)gold(I)
inhibition of HIV reverse transcriptase [2]: does inhibit HIV reverse transcriptase | inhibition of the infectivity of HIV (HIV): inhibit the infectivity of HIV

Cc1cn([C@H]2C[C@H](N=[N+]=[N-])[C@@H](CO)O2)c(=O)[nH]c1=O [AZT, azidothymidine]
side effects (AIDS; AIDS): significant side effects
